From patent US20230085307A1, “PYRIDAZINONE COMPOUND AND HERBICIDE” (NISSAN CHEMICAL CORPORATION, priority 2019, published 2023)

Experiments:
chickweed = experiment: Test Example 4: herbicidal effect by soil treatment (Table 19, symbol P); format: in vivo, common chickweed (Stellaria media)
Summary of the method: (§1)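 Soil-surface application: an emulsion agent diluted with water to the predetermined dose is sprayed uniformly over seeds lying under roughly 1.5 cm of sterilized diluvial soil. Boxes stay in a greenhouse at 25° C. to 30° C. Three weeks later, each species is graded on previously defined criteria.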

barnyard grass [1] = experiment: Test Example 5: herbicidal effect by foliage application, plastic box (Table 20, symbol H); format: in vivo, barnyard grass (Echinochloa crus-galli); conditions: foliage application, 320 g/ha, 3 weeks after application
Summary of the method: (§2)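 Sow seeds spot-wise in sterilized diluvial soil; cover with ~1.5 cm soil. Grow 14 days in greenhouse, 25° C. to 30° C. Spray foliage with emulsion diluted to predetermined amount. Rate effect after 3 weeks.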

blackgrass [2] = experiment: Test Example 4: herbicidal effect by soil treatment (Table 19, symbol J); format: in vivo, blackgrass (Alopecurus myosuroides)
Summary of the method: as §1

green foxtail [3] = experiment: Test Example 4: herbicidal effect by soil treatment (Table 19, symbol G); format: in vivo, green foxtail (Setaria viridis)
Summary of the method: as §1

wild oat [4] = experiment: Test Example 4: herbicidal effect by soil treatment (Table 19, symbol I); format: in vivo, wild oat (Avena fatua)
Summary of the method: as §1

late watergrass = experiment: Test Example 1: herbicidal activity, application before weed generation under submerged conditions (Table 16, symbol A); format: in vivo, late watergrass (Echinochloa oryzicola); conditions: 320 g/ha applied herbicide
Summary of the method: (§3)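 Emulsion formulation, water-diluted to set dose, was put onto the flooded surface (4 cm depth, alluvial soil) the same day weeds were sown and 2.5-leaf rice transplanted. After 3 weeks at 25-30 °C under glass, each species was rated 0 (≤5% kill) to 5 (≥90% kill).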

rice flat sedge = experiment: Test Example 3: herbicidal effect by foliage application, Wagner pot (Table 18, symbol E); format: in vivo, rice flat sedge (Cyperus iria); conditions: 320 g/ha
Summary of the method: (§4)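 Plants were sown in alluvial soil held under 0.1–0.5 cm standing water and grown 14 days in a greenhouse at 25–30 °C. An emulsifiable formulation, water-diluted to the set dose, was then sprayed onto the foliage, and effects were scored three weeks later using previously defined criteria.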

velvetleaf [5] = experiment: Test Example 5: herbicidal effect by foliage application, plastic box (Table 20, symbol M); format: in vivo, velvetleaf (Abutilon theophrasti); conditions: foliage application, 320 g/ha, 3 weeks after application
Summary of the method: as §2

barnyard grass [6] = experiment: Test Example 4: herbicidal effect by soil treatment (Table 19, symbol H); format: in vivo, barnyard grass (Echinochloa crus-galli)
Summary of the method: as §1

wild oat [7] = experiment: Test Example 5: herbicidal effect by foliage application, plastic box (Table 20, symbol I); format: in vivo, wild oat (Avena fatua); conditions: foliage application, 320 g/ha, 3 weeks after application
Summary of the method: as §2

lambsquarters [8] = experiment: Test Example 5: herbicidal effect by foliage application, plastic box (Table 20, symbol O); format: in vivo, lambsquarters (Chenopodium album); conditions: foliage application, 320 g/ha, 3 weeks after application
Summary of the method: as §2

blackgrass [9] = experiment: Test Example 5: herbicidal effect by foliage application, plastic box (Table 20, symbol J); format: in vivo, blackgrass (Alopecurus myosuroides); conditions: foliage application, 320 g/ha, 3 weeks after application
Summary of the method: as §2

velvetleaf [10] = experiment: Test Example 4: herbicidal effect by soil treatment (Table 19, symbol M); format: in vivo, velvetleaf (Abutilon theophrasti)
Summary of the method: as §1

persian speedwell [11] = experiment: Test Example 4: herbicidal effect by soil treatment (Table 19, symbol R); format: in vivo, Persian speedwell (Veronica persica)
Summary of the method: as §1

oval-leafed pondweed = experiment: Test Example 1: herbicidal activity, application before weed generation under submerged conditions (Table 16, symbol C); format: in vivo, oval-leafed pondweed (Monochoria vaginalis); conditions: 320 g/ha applied herbicide
Summary of the method: as §3

barnyard grass [12] = experiment: Test Example 3: herbicidal effect by foliage application, Wagner pot (Table 18, symbol H); format: in vivo, barnyard grass (Echinochloa crus-galli); conditions: 320 g/ha
Summary of the method: as §4

southern crabgrass [13] = experiment: Test Example 4: herbicidal effect by soil treatment (Table 19, symbol F); format: in vivo, southern crabgrass (Digitaria ciliaris)
Summary of the method: as §1

Japanese bulrush = experiment: Test Example 1: herbicidal activity, application before weed generation under submerged conditions (Table 16, symbol B); format: in vivo, Japanese bulrush (Schoenoplectus juncoides); conditions: 320 g/ha applied herbicide
Summary of the method: as §3

redroot pigweed = experiment: Test Example 4: herbicidal effect by soil treatment (Table 19, symbol N); format: in vivo, redroot pigweed (Amaranthus retroflexus)
Summary of the method: as §1

Italian ryegrass [14] = experiment: Test Example 4: herbicidal effect by soil treatment (Table 19, symbol K); format: in vivo, Italian ryegrass (Lolium multiflorum)
Summary of the method: as §1

green foxtail [15] = experiment: Test Example 5: herbicidal effect by foliage application, plastic box (Table 20, symbol G); format: in vivo, green foxtail (Setaria viridis); conditions: foliage application, 320 g/ha, 3 weeks after application
Summary of the method: as §2

windgrass [16] = experiment: Test Example 4: herbicidal effect by soil treatment (Table 19, symbol L); format: in vivo, windgrass (Apera spica-venti)
Summary of the method: as §1

southern crabgrass [17] = experiment: Test Example 5: herbicidal effect by foliage application, plastic box (Table 20, symbol F); format: in vivo, southern crabgrass (Digitaria ciliaris); conditions: foliage application, 320 g/ha, 3 weeks after application
Summary of the method: as §2

persian speedwell [18] = experiment: Test Example 5: herbicidal effect by foliage application, plastic box (Table 20, symbol R); format: in vivo, Persian speedwell (Veronica persica); conditions: foliage application, 320 g/ha, 3 weeks after application
Summary of the method: as §2

lambsquarters [19] = experiment: Test Example 4: herbicidal effect by soil treatment (Table 19, symbol O); format: in vivo, lambsquarters (Chenopodium album)
Summary of the method: as §1

Chinese sprangletop = experiment: Test Example 3: herbicidal effect by foliage application, Wagner pot (Table 18, symbol D); format: in vivo, chinese sprangletop (Leptochloa chinensis); conditions: 320 g/ha
Summary of the method: as §4

Italian ryegrass [20] = experiment: Test Example 5: herbicidal effect by foliage application, plastic box (Table 20, symbol K); format: in vivo, Italian ryegrass (Lolium multiflorum); conditions: foliage application, 320 g/ha, 3 weeks after application
Summary of the method: as §2

windgrass [21] = experiment: Test Example 5: herbicidal effect by foliage application, plastic box (Table 20, symbol L); format: in vivo, windgrass (Apera spica-venti); conditions: foliage application, 320 g/ha, 3 weeks after application
Summary of the method: as §2

SMILES: Cc1nn(C)c(=O)c(-c2c(-c3ccc(OC(C)C#N)cc3)sc3ccccc23)c1O (racemic) [1-236]
- P: chickweed, herbicidal effect rating (chickweed; AAH 320 g/ha): 4 (Herbicidal rate of 70% or more and less than 90%)
- effect on barnyard grass (H) (barnyard grass [1]): 5 (Herbicidal rate of 90% or more (almost completely withered))
- J: blackgrass, herbicidal effect rating (blackgrass [2]; AAH 320 g/ha): 0 (Herbicidal rate of 5% or less (almost no effect))
- G: green foxtail, herbicidal effect rating (green foxtail [3]; AAH 320 g/ha): 4 (Herbicidal rate of 70% or more and less than 90%)
- I: wild oat, herbicidal effect rating (wild oat [4]; AAH 320 g/ha): 0 (Herbicidal rate of 5% or less (almost no effect))
- Herbicidal effect on A: late watergrass (grade 0-5) (late watergrass): 3 (Herbicidal rate of 40% or more and less than 70%)
- herbicidal effect on E (rice flat sedge), rating 0-5 (rice flat sedge): 5 (Herbicidal rate of 90% or more (almost completely withered))
- effect on velvetleaf (M) (velvetleaf [5]): 5 (Herbicidal rate of 90% or more (almost completely withered))
- H: barnyard grass, herbicidal effect rating (barnyard grass [6]; AAH 320 g/ha): 5 (Herbicidal rate of 90% or more (almost completely withered))
- effect on wild oat (I) (wild oat [7]): 5 (Herbicidal rate of 90% or more (almost completely withered))
- effect on lambsquarters (O) (lambsquarters [8]): 5 (Herbicidal rate of 90% or more (almost completely withered))
- effect on blackgrass (J) (blackgrass [9]): 4 (Herbicidal rate of 70% or more and less than 90%)
- M: velvetleaf, herbicidal effect rating (velvetleaf [10]; AAH 320 g/ha): 1 (Herbicidal rate of 5% or more and less than 20%)
- R: persian speedwell, herbicidal effect rating (persian speedwell [11]; AAH 320 g/ha): 4 (Herbicidal rate of 70% or more and less than 90%)
- Herbicidal effect on C: oval-leafed pondweed (grade 0-5) (oval-leafed pondweed): 0 (Herbicidal rate of 5% or less (almost no effect))
- herbicidal effect on H (barnyard grass), rating 0-5 (barnyard grass [12]): 5 (Herbicidal rate of 90% or more (almost completely withered))
- F: southern crabgrass, herbicidal effect rating (southern crabgrass [13]; AAH 320 g/ha): 4 (Herbicidal rate of 70% or more and less than 90%)
- Herbicidal effect on B: Japanese bulrush (grade 0-5) (Japanese bulrush): 0 (Herbicidal rate of 5% or less (almost no effect))
- N: redroot pigweed, herbicidal effect rating (redroot pigweed; AAH 320 g/ha): 5 (Herbicidal rate of 90% or more (almost completely withered))
- K: Italian ryegrass, herbicidal effect rating (Italian ryegrass [14]; AAH 320 g/ha): 3 (Herbicidal rate of 40% or more and less than 70%)
- effect on green foxtail (G) (green foxtail [15]): 4 (Herbicidal rate of 70% or more and less than 90%)
- L: windgrass, herbicidal effect rating (windgrass [16]; AAH 320 g/ha): 0 (Herbicidal rate of 5% or less (almost no effect))
- effect on southern crabgrass (F) (southern crabgrass [17]): 4 (Herbicidal rate of 70% or more and less than 90%)
- effect on persian speedwell (R) (persian speedwell [18]): 5 (Herbicidal rate of 90% or more (almost completely withered))
- O: lambsquarters, herbicidal effect rating (lambsquarters [19]; AAH 320 g/ha): 4 (Herbicidal rate of 70% or more and less than 90%)
- herbicidal effect on D (Chinese sprangletop), rating 0-5 (Chinese sprangletop): 5 (Herbicidal rate of 90% or more (almost completely withered))
- effect on Italian ryegrass (K) (Italian ryegrass [20]): 5 (Herbicidal rate of 90% or more (almost completely withered))
- effect on windgrass (L) (windgrass [21]): 0 (Herbicidal rate of 5% or less (almost no effect))

SMILES: CCOC(=O)Oc1c(C)nn(C)c(=O)c1-c1c(-c2ccc(F)cc2)sc2ccc(F)cc12 [2-004]
- herbicidal effect rating, P: chickweed (chickweed; 320 g/ha): 5 (Herbicidal rate of 90% or more (almost completely withered))
- effect on barnyard grass (H) (barnyard grass [1]): 4 (Herbicidal rate of 70% or more and less than 90%)
- herbicidal effect rating, J: blackgrass (blackgrass [2]; 320 g/ha): 0 (Herbicidal rate of 5% or less (almost no effect))
- herbicidal effect rating, G: green foxtail (green foxtail [3]; 320 g/ha): 5 (Herbicidal rate of 90% or more (almost completely withered))
- herbicidal effect rating, I: wild oat (wild oat [4]; 320 g/ha): 0 (Herbicidal rate of 5% or less (almost no effect))
- Herbicidal effect on A: late watergrass (grade 0-5) (late watergrass): 0 (Herbicidal rate of 5% or less (almost no effect))
- herbicidal effect on E (rice flat sedge), rating 0-5 (rice flat sedge): 4 (Herbicidal rate of 70% or more and less than 90%)
- effect on velvetleaf (M) (velvetleaf [5]): 5 (Herbicidal rate of 90% or more (almost completely withered))
- herbicidal effect rating, H: barnyard grass (barnyard grass [6]; 320 g/ha): 4 (Herbicidal rate of 70% or more and less than 90%)
- effect on wild oat (I) (wild oat [7]): 0 (Herbicidal rate of 5% or less (almost no effect))
- effect on lambsquarters (O) (lambsquarters [8]): 3 (Herbicidal rate of 40% or more and less than 70%)
- effect on blackgrass (J) (blackgrass [9]): 4 (Herbicidal rate of 70% or more and less than 90%)
- herbicidal effect rating, M: velvetleaf (velvetleaf [10]; 320 g/ha): 3 (Herbicidal rate of 40% or more and less than 70%)
- herbicidal effect rating, R: persian speedwell (persian speedwell [11]; 320 g/ha): 1 (Herbicidal rate of 5% or more and less than 20%)
- Herbicidal effect on C: oval-leafed pondweed (grade 0-5) (oval-leafed pondweed): 2 (Herbicidal rate of 20% or more and less than 40%)
- herbicidal effect on H (barnyard grass), rating 0-5 (barnyard grass [12]): 5 (Herbicidal rate of 90% or more (almost completely withered))
- herbicidal effect rating, F: southern crabgrass (southern crabgrass [13]; 320 g/ha): 4 (Herbicidal rate of 70% or more and less than 90%)
- Herbicidal effect on B: Japanese bulrush (grade 0-5) (Japanese bulrush): 2 (Herbicidal rate of 20% or more and less than 40%)
- herbicidal effect rating, N: redroot pigweed (redroot pigweed; 320 g/ha): 5 (Herbicidal rate of 90% or more (almost completely withered))
- herbicidal effect rating, K: Italian ryegrass (Italian ryegrass [14]; 320 g/ha): 5 (Herbicidal rate of 90% or more (almost completely withered))
- effect on green foxtail (G) (green foxtail [15]): 5 (Herbicidal rate of 90% or more (almost completely withered))
- herbicidal effect rating, L: windgrass (windgrass [16]; 320 g/ha): 0 (Herbicidal rate of 5% or less (almost no effect))
- effect on southern crabgrass (F) (southern crabgrass [17]): 4 (Herbicidal rate of 70% or more and less than 90%)
- effect on persian speedwell (R) (persian speedwell [18]): 5 (Herbicidal rate of 90% or more (almost completely withered))
- herbicidal effect rating, O: lambsquarters (lambsquarters [19]; 320 g/ha): 5 (Herbicidal rate of 90% or more (almost completely withered))
- herbicidal effect on D (Chinese sprangletop), rating 0-5 (Chinese sprangletop): 3 (Herbicidal rate of 40% or more and less than 70%)
- effect on Italian ryegrass (K) (Italian ryegrass [20]): 5 (Herbicidal rate of 90% or more (almost completely withered))
- effect on windgrass (L) (windgrass [21]): 3 (Herbicidal rate of 40% or more and less than 70%)
